The results in this text go back to patent US20210392892A1, “COMPOSITIONS COMPRISING PYRIDINE CARBOXYLATE HERBICIDES AND ACETYL COA CARBOXYLASE (ACCASE) INHIBITOR HERBICIDES” (Corteva Agriscience LLC, priority 2018, published 2021).

Common to all, as to assay: Greenhouse postemergence herbicidal effect (visual injury)
Common to all, as to assay type: in vivo

The test system of assay [1] is LOLMG, Lolium multiflorum subsp. gaudini (annual ryegrass). The text has this: (§1) Seeds of the desired test plant species were planted in a 90:10% v/v (volume/volume) mixture of PRO-MIX® BX (Premier Tech Horticulture, Quakertown, Pa., USA) and PROFILE® GREENS GRADE™ (Profile Products LLC, Buffalo Grove, Ill., USA) planting mixture, which typically has a pH of 5.2 to 6.2 and an organic matter content of at least 50 percent, in plastic pots with a surface area of 103.2 square centimeters (cm^2). In some aspects, to help ensure good germination and healthy plants, a fungicide treatment and/or other chemical or physical treatment was applied. The plants were grown for 7-36 days (d) in a greenhouse with an approximate 14-hour (h) photoperiod which was maintained at about 23° C. during the day and 22° C. during the night. Nutrients and water were added on a regular basis and supplemental lighting was provided with overhead metal halide 1000-Watt lamps as necessary. The plants were employed for testing when they reached the second or third true leaf stage.
(§2) Emulsifiable concentrates of each of each pyridine carboxylate herbicide (Compound A or Compound B) were prepared at 100 grams acid equivalent per liter (g ae/L). The emulsifiable concentrates also included a safener, cloquintocet-mexyl, at 120 grams active ingredient per liter (g ai/L), unless otherwise noted below. An aliquot of each emulsifiable concentrate was placed in a 25 mL glass vial and diluted with an aqueous mixture of 1.25% (v/v) ACTIROB® B esterified rapeseed oil (Bayer Crop Science, Research Triangle Park, N.C., USA) or MSO® Concentrate with LECI-TECH® methylated soybean oil (Loveland Products, Loveland, Colo., USA) to obtain concentrated stock solutions at the highest application rate for each herbicide, based upon a 12 milliliter (mL) application volume at a rate of 187 liters per hectare (L/ha). The concentrated stock solutions were further diluted with an aqueous mixture of 1.25% v/v ACTIROB® B or MSO® Concentrate with LECI-TECH® to obtain stock solutions at reduced application rates for each herbicide. Spray solutions of the herbicide combinations (Compound A or Compound B plus ACCase inhibitor herbicide) were prepared by adding weighed amounts or aliquots of the ACCase inhibitor herbicide to the stock solutions of Compound A or Compound B to form 12-mL spray solutions in two-way combinations.
(§3) The spray solutions were applied to the plant material with an overhead Mandel track sprayer equipped with 8002E nozzles calibrated to deliver 187 L/ha over an application area of 0.503 square meters (m^2) at a spray height of 18 inches (43 centimeters (cm)) above the average plant canopy. Control plants were sprayed in the same manner with the solvent blank. All pyridine carboxylate herbicide (component a) application rates are given as “g ae/ha” and all ACCase inhibitor herbicide (component b) application rates are given as “g ai/ha.”
(§4) The treated plants and control plants were placed in a greenhouse as described above and watered by sub-irrigation to prevent wash-off of the test compounds. After 20-22 d, the condition of the test plants as compared with that of the control plants was determined visually and scored on a scale of 0 to 100 percent where 0 corresponds to no injury and 100 corresponds to complete kill.

Assay [2] relates to ORYSA, Oryza sativa (common rice).
Description: as §1, §2, §3, §4

Assay [3] concerns SETFA, Setaria faberi (giant foxtail).
Description: as §1, §2, §3, §4

Assay [4] has as its system ZEAMX, Zea mays (maize).
Description: as §1, §2, §3, §4

In assay [5] the test system is ABUTH, Abutilon theophrasti (velvetleaf).
Description: as §1, §2, §3, §4

Assay [6] concerns BRSNW, Brassica napus (winter rape).
Description: as §1, §2, §3, §4

Assay [7] concerns CIRAR, Cirsium arvense (Canadian thistle).
Description: as §1, §2, §3, §4

Assay [8] has as its system GLXMA, Glycine max (soybean).
Description: as §1, §2, §3, §4

Assay [9] has as its system HELAN, Helianthus annuus (common sunflower).
Description: as §1, §2, §3, §4

Assay [10] deals with IPOHE, Ipomoea hederacea (ivyleaf morningglory).
Description: as §1, §2, §3, §4

The subject of assay [11] is KCHSC, Kochia scoparia (kochia).
Description: as §1, §2, §3, §4

For assay [12], the system named is LEFCH, Leptochloa chinensis (Chinese sprangletop).
Description: as §1, §2, §3, §4

The test system of assay [13] is POLCO, Polygonum convolvulus (wild buckwheat).
Description: as §1, §2, §3, §4

In assay [14] the test system is RUMOB, Rumex obtusifolius (broad-leaf dock).
Description: as §1, §2, §3, §4

Assay [15] deals with SORVU, Sorghum vulgare (grain sorghum).
Description: as §1, §2, §3, §4

The subject of assay [16] is STEME, Stellaria media (chickweed).
Description: as §1, §2, §3, §4

For assay [17], the system named is VIOTR, Viola tricolor (wild pansy).
Description: as §1, §2, §3, §4

Assay [18] concerns BRSNN, Brassica napus (spring rape). The settings on record: 70 g ai/ha.
Description: as §1, §2, §3, §4

The subject of assay [19] is ALOMY, Alopecurus myosuroides (blackgrass).
Description: as §1, §2, §3, §4

Assay [20] relates to AVEFA, Avena fatua (wild oat).
Description: as §1, §2, §3, §4

The subject of assay [21] is CYPES, Cyperus esculentus (nutsedge).
Description: as §1, §2, §3, §4

The test system of assay [22] is DIGSA, Digitaria sanguinalis (large crabgrass).
Description: as §1, §2, §3, §4

Assay [23] has as its system ECHCG, Echinochloa crus-galli (barnyardgrass).
Description: as §1, §2, §3, §4

The test system of assay [24] is LOLMU, Lolium multiflorum (Italian ryegrass).
Description: as §1, §2, §3, §4

In the case of `C#CCOC(=O)[C@@H](C)Oc1ccc(Oc2ncc(Cl)cc2F)cc1`, the “% visual injury, Obs” value was 15% in assay [1] (30 g ai/ha), 83% in assay [2] (30 g ai/ha), 98% in [3] (30 g ai/ha) and 90% in assay [4] (30 g ai/ha).
Regarding `CCSC(C)CC1CC(=O)C(C(CC)=NOC/C=C/Cl)=C(O)C1` (stereo not shown) [Clethodim, reference compound], the “% visual injury, Obs” value in assay [5] (70 g ai/ha) worked out at 0%; in [6] (70 g ai/ha), 0%; in assay [7] (70 g ai/ha) it was 0%; in [8] (70 g ai/ha), 5%; in assay [9] (70 g ai/ha) it was 0%; in assay [10] (70 g ai/ha), 0%. The “% visual injury, Obs” value in assay [11] (70 g ai/ha) is recorded as 0%; in assay [12] (70 g ai/ha) it was 95%; in [13] (70 g ai/ha), 0%; in assay [14] (70 g ai/ha), 0%; in assay [3] (70 g ai/ha), 90%; in assay [15] (70 g ai/ha) it was 98%. For the same compound, the “% visual injury, Obs” value in assay [16] (70 g ai/ha) and in assay [17] (70 g ai/ha) was 0% in each case.
For the compound `C#CCOC(=O)c1nc(-c2ccc3cc[nH]c3c2F)c(F)c(N)c1Cl` [Compound B, propargyl 4-amino-3-chloro-5-fluoro-6-(7-fluoro-1H-indol-6-yl)pyridine-2-carboxylate], the “% visual injury, Obs” value in assay [15] (7.5 g ae/ha, with cloquintocet-mexyl) turned out to be 10%; in assay [15] (10 g ae/ha, with cloquintocet-mexyl) it was 20%.
`COC(=O)[C@@H](C)Oc1ccc(Oc2ncc(C(F)(F)F)cc2Cl)cc1` [Haloxyfop-R-methyl, reference compound]: the “% visual injury, Obs” value in assay [12] (LEFCH, Compound A 0 g/ha, Haloxyfop-R-methyl 70 g/ha) worked out at 100%; in assay [3] (SETFA, Compound A 0 g/ha, Haloxyfop-R-methyl 70 g/ha), 100%.
Consider `CCc1cc(C)cc(CC)c1-c1c(OC(=O)C(C)(C)C)n2n(c1=O)CCOCC2` [Pinoxaden], for which the “% visual injury, Obs” value in [1] (30 g ai/ha) amounted to 94%; in [2] (30 g ai/ha), 99%; in assay [3] (30 g ai/ha) it was 10%; in [4] (30 g ai/ha), 5%.
In the case of `CCOC(=O)[C@@H](C)Oc1ccc(Oc2cnc3cc(Cl)ccc3n2)cc1` [Quizalofop-P-ethyl, reference compound], the “% visual injury, Obs” value in assay [12] (LEFCH, Compound A 0 g/ha, Quizalofop-P-ethyl 75 g/ha) amounted to 100%; in assay [3] (SETFA, Compound A 0 g/ha, Quizalofop-P-ethyl 75 g/ha) it was 100%.
With `CCCC(=NOCC)C1=C(O)CC(CC(C)SCC)CC1=O` (stereo not shown) [Sethoxydim, reference compound], the “% visual injury, Obs” value in [18], in assay [11] (70 g ai/ha), in [14] (70 g ai/ha) and in assay [16] (70 g ai/ha) was 0% each time.
As to `CCON=C(CC)C1=C(O)CC(c2c(C)cc(C)cc2C)CC1=O` (stereo not shown) [Tralkoxydim, 2-[1-(ethoxyimino)propyl]-3-hydroxy-5-mesitylcyclohex-2-enone], the figures for the “% visual injury, Obs” value in [1] (100 g ai/ha), in assay [3] (100 g ai/ha) and in assay [15] (100 g ai/ha) were 70%, 40% and 65%, respectively.
As for Fenoxaprop, the “% visual injury, Obs” value in assay [19] (46 g ai/ha) was determined as 0%; in [20] (46 g ai/ha) it was 68%; in [21] (46 g ai/ha) it was 0%; in [22] (46 g ai/ha), 96%; in [23] (46 g ai/ha), 100%; in assay [1] (46 g ai/ha), 0%. Also, the “% visual injury, Obs” value came to 5% in [24] (46 g ai/ha), 35% in assay [2] (46 g ai/ha), 100% in [3] (46 g ai/ha) and 100% in assay [4] (46 g ai/ha).
Fluazifop [reference compound]: the “% visual injury, Obs” value in [5] (ABUTH, Compound A 0 g/ha, Fluazifop 105 g/ha) was 0%; in assay [19] (105 g ai/ha), 93%; in assay [19] (ALOMY, Compound A 0 g/ha, Fluazifop 105 g/ha), 85%; in assay [20] (105 g ai/ha), 93%; in assay [20] (AVEFA, Compound A 0 g/ha, Fluazifop 105 g/ha), 95%; in assay [6] (BRSNW, Compound A 0 g/ha, Fluazifop 105 g/ha) it was 0%. Also, the “% visual injury, Obs” value in assay [7] (CIRAR, Compound A 0 g/ha, Fluazifop 105 g/ha) amounted to 5%; in assay [21] (105 g ai/ha) it was 5%; in [21] (CYPES, Compound A 0 g/ha, Fluazifop 105 g/ha) it was 0%; in assay [22] (105 g ai/ha), 95%; in assay [22] (DIGSA, Compound A 0 g/ha, Fluazifop 105 g/ha) it was 95%; in [23] (105 g ai/ha), 95%. In addition, the “% visual injury, Obs” value came to 95% in [23] (ECHCG, Compound A 0 g/ha, Fluazifop 105 g/ha); 28% in [8] (GLXMA, Compound A 0 g/ha, Fluazifop 105 g/ha); 0% in [9] (HELAN, Compound A 0 g/ha, Fluazifop 105 g/ha); 0% in assay [10] (IPOHE, Compound A 0 g/ha, Fluazifop 105 g/ha); 0% in [11] (KCHSC, Compound A 0 g/ha, Fluazifop 105 g/ha); 100% in [12] (105 g ai/ha). In addition, the “% visual injury, Obs” value in [12] (LEFCH, Compound A 0 g/ha, Fluazifop 105 g/ha) was 98%; in assay [24] (105 g ai/ha), 80%; in assay [24] (LOLMU, Compound A 0 g/ha, Fluazifop 105 g/ha) it was 88%; in [13] (POLCO, Compound A 0 g/ha, Fluazifop 105 g/ha) it was 0%; in [14] (RUMOB, Compound A 0 g/ha, Fluazifop 105 g/ha), 0%; in assay [3] (105 g ai/ha), 90%. Besides, the “% visual injury, Obs” value is recorded as 85% in [3] (SETFA, Compound A 0 g/ha, Fluazifop 105 g/ha); 100% in assay [15] (SORVU, Compound A 0 g/ha, Fluazifop 105 g/ha); 0% in [16] (STEME, Compound A 0 g/ha, Fluazifop 105 g/ha); 3% in assay [17] (VIOTR, Compound A 0 g/ha, Fluazifop 105 g/ha).
